Reference: patent US11279714B2, “Anti-infective compounds” (priority 2014, dated 2022)
In brackets after ≈: the same amount, converted by molar mass.

Columns and labels:
[1] = test system: M. tuberculosis H37Rv expressing the green fluorescent protein (H37Rv-GFP); experiment: microbe, parasite or virus in culture; assay type: cell-based; conditions: Mycobacterium tuberculosis, H37RV, 120 h; read-out: QUM (MIC50)
[2] = test system: Raw 264.7 cells infected with H37Rv-GFP; experiment: microbe, parasite or virus in culture; assay type: cell-based, M. tuberculosis; conditions: Mycobacterium tuberculosis, H37RV, 120 h; read-out: QIM (MIC50)

| Structure (SMILES) | MIC50 [1] [µM] | MIC50 [2] [µM] |
| --- | --- | --- |
| Cc1nc2cc(NC(=O)c3cc4sc(N5CCC(NC(=O)CC(C)(C)C)CC5)nc4s3)ccc2o1 [Compound 305] | > 20 | < 1 |
| Cc1nc2cc(NC(=O)c3cc4sc(N5CCC(Cc6ccc(Cl)cc6)CC5)nc4s3)ccc2o1 [Compound 236] | > 20 | < 1 |
| CN(C)C(=O)C1CCN(c2nc3sc(C(=O)Nc4ccc(-c5ccc(F)cc5)nc4)cc3s2)CC1 [Compound 231] | < 1 | < 1 |
| CC(C)(C)CC(=O)NC1CCN(c2nc3sc(C(=O)Nc4ccc(-c5ccc(F)nc5)cc4)cc3s2)CC1 [Compound 348] | > 20 | < 1 |
| Cc1nc2cc(NC(=O)c3cc4sc(N(C)CCN5CCOCC5)nc4s3)ccc2o1 [Compound 225] | 1 to 20 (≈ 0.458 to 9.15 µg/mL) | < 1 |
| Cc1nc2cc(NC(=O)c3cc4sc(N5CC[C@H](C(=O)N(C)C)C5)nc4s3)ccc2o1 [Compound 215] | < 1 | < 1 |
| O=C(Nc1ccc(N2CCC(Oc3ccc(F)cc3)CC2)cc1)c1cc2sc(NCCN3CCOCC3)nc2s1 [Compound 295] | > 20 | > 20 |
| Cc1nc2cc(NC(=O)c3cc4sc(NCCCN5CCOCC5)nc4s3)ccc2o1 [Compound 296] | 1 to 20 (≈ 0.458 to 9.15 µg/mL) | < 1 |
| O=C(Nc1ccc(-c2ccc(F)nc2)cc1)c1cc2sc(N3CCN(CCO)CC3)nc2s1 [Compound 337] | < 1 | < 1 |
| COCCN(c1nc2sc(C(=O)Nc3ccc4oc(C)nc4c3)cc2s1)C1CC1 [Compound 270] | > 20 | > 20 |
| Cc1nc2cc(NC(=O)c3cc4sc(N5CCN(C(=O)N(C)C)CC5)nc4s3)ccc2o1 [Compound 237] | < 1 | < 1 |
| Cc1nc2cc(NC(=O)c3cc4sc(N5CCC(Oc6ccc(Cl)cc6)CC5)nc4s3)ccc2o1 [Compound 207] | 1 to 20 (≈ 0.525 to 10.5 µg/mL) | < 1 |
| CN(C)C(=O)C1CCN(c2nc3sc(C(=O)Nc4ccc(-c5nn(C)cc5F)cc4)cc3s2)CC1 [Compound 228] | < 1 | < 1 |
| CN(CCO)c1nc2sc(C(=O)Nc3ccc(N4CCC(Oc5ccc(F)cc5)CC4)cc3)cc2s1 [Compound 250] | > 20 | < 1 |
| CN(C)C(=O)C1CCN(c2nc3sc(C(=O)Nc4ccc(-c5ccc(C(F)(F)F)nc5)cc4)cc3s2)CC1 [Compound 209] | < 1 | < 1 |
| Cc1nc2cc(NC(=O)c3cc4sc(N(CCO)C5CCCCC5)nc4s3)ccc2o1 [Compound 227] | 1 to 20 (≈ 0.457 to 9.13 µg/mL) | > 20 |
| CCN(CC)c1nc2sc(C(=O)Nc3ccc(OC)cc3)cc2s1 [Compound 287] | < 1 | < 1 |

| Structure (SMILES) | MIC50 [1] [µM] | MIC50 [2] [µM] |
| --- | --- | --- |
| CN(CCO)c1nc2sc(C(=O)Nc3ccc(-c4ccn(C)n4)cc3)cc2s1 [Compound 275] | 1 to 20 (≈ 0.414 to 8.27 µg/mL) | < 1 |
| O=C(Nc1ccc(N2CCC(Oc3ccc(F)cc3)CC2)cc1)c1cc2sc(N3CCOCC3)nc2s1 [Compound 220] | > 20 | < 1 |
| O=C(Nc1ccc(F)cc1)c1cc2sc(OC3CCCCC3)nc2s1 [Compound 334] | 1 to 20 (≈ 0.376 to 7.53 µg/mL) | < 1 |
| Cc1nc2cc(NC(=O)c3cc4sc(N5CC[C@@H](C(=O)N(C)C)C5)nc4s3)ccc2o1 [Compound 223] | 1 to 20 (≈ 0.456 to 9.11 µg/mL) | 1 to 20 (≈ 0.456 to 9.11 µg/mL) |
| Cc1nc2cc(NC(=O)c3cc4sc(N5CCOC(CO)C5)nc4s3)ccc2o1 (stereo not drawn) [Compound 152] | 1 to 20 (≈ 0.431 to 8.61 µg/mL) | 1 to 20 (≈ 0.431 to 8.61 µg/mL) |
| COCCN(C)c1nc2sc(C(=O)Nc3ccc4oc(C)nc4c3)cc2s1 [Compound 202] | < 1 | < 1 |
| Cc1nc2cc(NC(=O)c3cc4sc(N5CC[C@@H](C(=O)Nc6ccc7nc(C)oc7c6)C5)nc4s3)ccc2o1 [Compound 222] | 1 to 20 (≈ 0.559 to 11.2 µg/mL) | < 1 |
| CN(C)C(=O)C1CCN(c2nc3sc(C(=O)Nc4ccc(-c5nn(C)cc5Cl)cc4)cc3s2)CC1 [Compound 276] | > 20 | < 1 |
| O=C(Nc1ccc(-c2ccc(F)nc2)cc1)c1cc2sc(NCCOc3ccc(Cl)cc3)nc2s1 [Compound 301] | > 20 | < 1 |
| Cc1nc2cc(NC(=O)c3cc4sc(N5CCC(N)CC5)nc4s3)ccc2o1 [Compound 234] | 1 to 20 (≈ 0.414 to 8.27 µg/mL) | < 1 |
| COCCNc1nc2sc(C(=O)Nc3ccc4oc(C)nc4c3)cc2s1 [Compound 266] | < 1 | < 1 |
| O=C(Nc1ccc(F)cc1)c1cc2sc(N3CCC(C(=O)c4ccc(Cl)cc4)CC3)nc2s1 [Compound 241] | > 20 | < 1 |
| Cc1ccc(-c2ccc(NC(=O)c3cc4sc(N5CCNCC5)nc4s3)cc2)nc1 [Compound 346] | 1 to 20 (≈ 0.436 to 8.71 µg/mL) | < 1 |
| N#Cc1ccc(NC(=O)c2cc3sc(N4CCC(O)CC4)nc3s2)cc1 [Compound 133] | 1 to 20 (≈ 0.384 to 7.69 µg/mL) | < 1 |
| CN(CCO)c1nc2sc(C(=O)Nc3ccc4oc(Cc5ccc(F)cc5)nc4c3)cc2s1 [Compound 251] | 1 to 20 (≈ 0.483 to 9.65 µg/mL) | < 1 |
| COC(CN(C)c1nc2sc(C(=O)Nc3ccc4oc(C)nc4c3)cc2s1)C(F)(F)F (stereo not drawn) [Compound 263] | > 20 | > 20 |
